Earlier results, collected in patent publication US6491946B1, “Pharmaceutical levothyroxine preparation” (Merck Patent Gesellschaft, priority 1998, dated 2002).
Like-named read-outs stand apart in the source and are kept apart here.

## N[C@@H](Cc1cc(I)c(Oc2cc(I)c(O)c(I)c2)c(I)c1)C(=O)O [Levothyroxine sodium, levothyroxine sodium]
In ethanol
  Solubility: soluble with great difficulty
In water
  Solubility: soluble with great difficulty
